Reference: patent publication US20240245694A1, “Tricyclic Compounds and their Uses” (Novartis AG, priority 2022, published 2024)

Experiments:
[1] = target: WRN helicase (core helicase motif aa N517-P1238) (Homo sapiens (Human), UniProt Q14191); experiment: WRN ATPase assay (ADP-Glo), DNA dependent ATP hydrolysis; type: biochemical; conditions: 3 hours pre-incubation, 300 micromolar ATP, FLAP26 ssDNA; geometric means of at least 2 determinations
Text: An ATPase assay was set up to measure the DNA dependent ATP hydrolysis activity of WRN helicase. This assay was used also to assess the inhibition properties of compounds of the invention on DNA dependent WRN ATPase activity.
The core helicase motif of the WRN protein (aa N517-P1238) was produced for this assay (protein production as described above). A 45 oligonucleotide sequence called “FLAP26” as described by Brosh et al., 2009, DOI: 10.1074/jbc.M111446200 ([…]; SEQ ID NO: 2) was purchased from IDT (Integrated DNA Technologies, Leuven, Belgium) and used as single strand DNA substrate. The ADP-Glo assay kit (Promega, Madison, WI) allowing the quantification of ADP produced in ATP hydrolysis reactions was used for setting up this assay. Time course experiments were first performed in order to determine the best enzymatic assay conditions (including buffer conditions, reaction time and concentrations of protein, ATP and DNA substrates). A typical reaction consists of 10 nM WRN protein, 0.2 nM FLAP26, and 300 micromolar ATP in the following assay buffer: 30 mM Tris pH7.5, 2 mM MgCl2, 0.02% BSA, 50 mM NaCl, 0.1% pluronic F127 prepared in DNAse free water.
To evaluate the inhibition properties of compounds of the invention, serial dilutions were prepared in DMSO (10 half log dilutions from a 10 mM DMSO solution). 50 nanoliters of each concentration was pre-incubated for 3 hours in a 384 small volume assay plate (Greiner #784075) with 2.5 microliters of a 20 nM WRN helicase protein in assay buffer with 600 micromolar ATP. Control wells were included with a “high control” (no inhibition), containing DMSO with no test compound, and “low controls” (maximal inhibition), containing buffer without protein. The reaction was started by addition of 2.5 microliters of FLAP26 at 0.4 nM and incubated for 30 minutes at room temperature. The reaction was stopped with the addition of 5 microliters of the first ADP-Glo reagent and incubated for one hour to remove the excess amount of ATP. Afterwards, 10 microliters of ATP detection reagent was added and incubated for an additional hour before reading. Luminescence output was recorded using Tecan 1000 reader, with 5 minutes delay before reading. Each concentration of compound was tested in duplicates in the assay plate.
Data analysis was carried out using an in-house developed software (Novartis Helios software application, Novartis Institutes for BioMedical Research, unpublished) using the methods described by Formenko et al., 2006, DOI: 10.1016/j.cmpb.2006.01.008. Following normalization of activity values for the wells to % inhibition (% inhibition=[(high control-sample)/(high control-low control)]×100), IC50 fitting was carried out from the duplicate determinations present on each plate according to [4]. Data analysis can also be carried out using commercially available software designed to derive IC50 values using 4-parameter fits (e.g. GraphPad Prism, XL fit). The reported IC50 values are the geometrical means of at least 2 independent replicates.

SW48 cells = experiment: Proliferation assay SW48 (CellTiterGlo, 96 hours); type: cell-based; conditions: Homo sapiens
Text: (§1) The colon carcinoma cell lines SW48 (RRID: CVCL_1724), HCT 116 (RRID: CVCL_0291) and SNU-407 (RRID: CVCL_5058) were obtained from ATCC. The WRN-knockdown insensitive colon carcinoma cell line DLD-1 (RRID: CVCL_0248) was obtained from the Korean Cell Line Bank (KCLB), and used to generate a derivative in which the endogenous WRN gene copies were knocked out by CRISPR-mediated editing using standard CRISPR methods. The resulting cell line, DLD1-WRN-KO, was used to assess potential off-target compound effects.
(§2) SW48, SNU-407 and DLD1-WRN-KO cells were cultured in growth medium composed of RPMI-1640 (Amimed Cat #1-41F22-1), 2 mM L-Glutamine (Amimed Cat #5-10K50), 10 mM HEPES (Gibco Cat #15630-056), 1 mM sodium pyruvate (Amimed Cat #5-60F00-H), 1× Penicillin-Streptomycin (Amimed Cat #4-01F00-H) and 10% fetal calf serum (Amimed Cat #2-01F30-G, Lot #LB11566P). HCT 116 cells were cultured in growth medium composed of McCoys 5A (Amimed catalog #1-18F01-1), 2 mM L-Glutamine (Amimed Cat #5-10K50), 1× Penicillin-Streptomycin (Amimed Cat #4-01F00-H) and 10% fetal calf serum (Amimed Cat #2-01F30-G, Lot #LB11566P). All cells were maintained at 37° C. in a humidified 5% CO2 incubator.
(§3) Following filtration through a Steriflip-NY 20 μm filter (Millipore Cat #SCNY00020), trypsinized cells were seeded in 100 microliters growth medium at 2′000 (SW48) or 1′500 (SNU-407, DLD1-WRN-KO, HCT 116) cells/well into white, clear-bottom 96-well plates (Costar Cat #3903). Three replicate plates were prepared for each compound treatment condition. In addition, one plate (termed “day 0”) was prepared to quantify the number of viable cells at the time of compound addition. Following overnight incubation at 37° C. in a humidified 5% CO2 atmosphere, eight 3-fold serial dilutions of a given compound stock (obtained at a concentration of 10 mM in DMSO and stored at 4° C.) were dispensed directly into each of the triplicate assay plates using a HP 300D non-contact Digital Dispenser (TECAN). The final concentration of DMSO was normalized to 0.1% in all wells. 96 hours after compound addition, cellular ATP levels as a surrogate for cell viability was assessed following addition of 50 microliters CellTiterGlo (Promega Cat #G7573) reagent and luminescence quantification on a MPLEX multi-mode plate-reader (TECAN) following a 10 minute incubation at room temperature. The number of viable cells in the “day 0” plate were quantified identically on the day of compound addition.
(§4) For data analysis, the assay background signal that was determined in wells containing medium, but no cells, was subtracted from all other data points prior to further calculations. The extent of growth inhibition and potential cell kill was assessed by comparing the ATP levels (measured using CellTiterGlo, Promega) in compound-treated cells with those present at the time of compound addition. To this end, the following conditional concept was programmatically applied in HELIOS, an in-house software applying a multi-step decision tree to arrive at optimal concentration response curve fits (Gubler et al, SLAS DOI: 10.1177/2472555217752140) to calculate % growth (% G) for each compound-treated well: % G=(T−V0)/V0))*100 when T<V0, and % G=(T−V0)/(V−V0)))*100 when T>V0, where V0 is the viability level at time of compound addition, while V and T represent vehicle-control and compound-treated viability levels, respectively, at the end of the compound incubation. 100%, 0% and −100% signify absence of growth inhibition, growth stasis, and complete cell kill, respectively. Compound concentrations leading to half-maximal growth inhibition (G150) and residual cell viability at the highest tested compound concentration (Data (cmax), expressed in percent) were routinely calculated. Data analysis can also be carried out using commercially available software designed to derive IC50 values using 4-parameter fits (e.g. GraphPad Prism, XL fit). […]

DLD1-WRN-KO cells = experiment: Proliferation assay DLD1-WRN-KO (CellTiterGlo, 96 hours), off-target effects; type: cell-based; conditions: Homo sapiens
Text: as §1, §2, §3, §4

Sequence of WRN helicase (core helicase motif aa N517-P1238) (Q14191 517-1238): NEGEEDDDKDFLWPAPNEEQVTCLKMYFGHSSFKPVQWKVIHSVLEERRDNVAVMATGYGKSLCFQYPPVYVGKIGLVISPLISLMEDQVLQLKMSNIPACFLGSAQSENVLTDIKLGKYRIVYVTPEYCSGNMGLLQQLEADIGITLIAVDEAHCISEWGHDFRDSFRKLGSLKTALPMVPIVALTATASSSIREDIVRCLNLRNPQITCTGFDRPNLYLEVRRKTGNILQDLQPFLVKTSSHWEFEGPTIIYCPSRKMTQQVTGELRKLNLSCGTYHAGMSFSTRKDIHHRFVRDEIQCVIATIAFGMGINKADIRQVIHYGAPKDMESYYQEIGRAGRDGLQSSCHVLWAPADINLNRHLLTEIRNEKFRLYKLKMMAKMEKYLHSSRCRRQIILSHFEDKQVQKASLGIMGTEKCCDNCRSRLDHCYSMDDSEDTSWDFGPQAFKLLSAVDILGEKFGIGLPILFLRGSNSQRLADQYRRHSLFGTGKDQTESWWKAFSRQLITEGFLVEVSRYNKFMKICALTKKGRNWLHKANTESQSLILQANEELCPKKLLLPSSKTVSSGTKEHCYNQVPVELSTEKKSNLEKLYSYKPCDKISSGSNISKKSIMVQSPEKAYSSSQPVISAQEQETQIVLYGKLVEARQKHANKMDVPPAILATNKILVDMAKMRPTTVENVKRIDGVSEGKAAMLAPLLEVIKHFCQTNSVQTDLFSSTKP

Row | IC50 [1] | GI50 (SW48 cells) | GI50 (DLD1-WRN-KO cells) | Structure (SMILES)
1 | 6000 nM | 5000 nM | > 10000 nM | C[C@H]1C[C@@H](C(=O)Nc2ccc(C(F)(F)F)cc2Cl)n2c1c(N1CCN(C(=O)c3ncc4c(c3O)OCC4)CC1)c(=O)n1nc(C3=CCOCC3)nc21 [Example 5B, (7S,9S)—N-(2-chloro-4-(trifluoromethyl)phenyl)-2-(3,6-dihydro-2H-pyran-4-yl)-6-(4-(7-hydroxy-2,3-dihydrofuro[3,2-c]pyridine-6-carbonyl)piperazin-1-yl)-7-methyl-5-oxo-5,7,8,9-tetrahydropyrrolo[1,2-c][1,2,4]triazolo[1,5-a]pyrimidine-9-carboxamide]
2 | 20 nM | 20 nM | > 10000 nM | C[C@@H]1C[C@H](C(=O)Nc2ccc(C(F)(F)F)cc2Cl)n2c1c(N1CCN(C(=O)c3nccc(F)c3O)CC1)c(=O)n1nc(C3=CCOCC3)nc21 [Example 6A, (7R,9R)—N-(2-chloro-4-(trifluoromethyl)phenyl)-2-(3,6-dihydro-2H-pyran-4-yl)-6-(4-(4-fluoro-3-hydroxypicolinoyl)piperazin-1-yl)-7-methyl-5-oxo-5,7,8,9-tetrahydropyrrolo[1,2-c][1,2,4]triazolo[1,5-a]pyrimidine-9-carboxamide]
3 | 2000 nM | 3000 nM | > 10000 nM | C[C@H]1C[C@@H](C(=O)Nc2ccc(C(F)(F)F)cc2Cl)n2c1c(N1CCN(C(=O)c3nccc(F)c3O)CC1)c(=O)n1nc(C3=CCOCC3)nc21 [Example 6B, (7S,9S)—N-(2-chloro-4-(trifluoromethyl)phenyl)-2-(3,6-dihydro-2H-pyran-4-yl)-6-(4-(4-fluoro-3-hydroxypicolinoyl)piperazin-1-yl)-7-methyl-5-oxo-5,7,8,9-tetrahydropyrrolo[1,2-c][1,2,4]triazolo[1,5-a]pyrimidine-9-carboxamide]
4 | 50 nM | 300 nM | > 10000 nM | C[C@@H]1C[C@H](C(=O)Nc2ccc(C(F)(F)F)cc2Cl)n2c1c(N1CCN(C(=O)c3nn(C)c(=O)[nH]3)CC1)c(=O)n1nc(C3=CCOCC3)nc21 [Example 7, (7R,9R)—N-(2-chloro-4-(trifluoromethyl)phenyl)-2-(3,6-dihydro-2H-pyran-4-yl)-7-methyl-6-(4-(1-methyl-5-oxo-4,5-dihydro-1H-1,2,4-triazole-3-carbonyl)piperazin-1-yl)-5-oxo-5,7,8,9-tetrahydropyrrolo[1,2-c][1,2,4]triazolo[1,5-a]pyrimidine-9-carboxamide]
5 | 20 nM | 20 nM | > 10000 nM | Cc1cc(F)c(O)c(C(=O)N2CCN(c3c4n(c5nc(C6=CCOCC6)nn5c3=O)[C@@H](C(=O)Nc3ccc(C(F)(F)F)cc3Cl)C[C@H]4C)CC2)n1 [Example 8, (7R,9R)—N-(2-chloro-4-(trifluoromethyl)phenyl)-2-(3,6-dihydro-2H-pyran-4-yl)-6-(4-(4-fluoro-3-hydroxy-6-methylpicolinoyl)piperazin-1-yl)-7-methyl-5-oxo-5,7,8,9-tetrahydropyrrolo[1,2-c][1,2,4]triazolo[1,5-a]pyrimidine-9-carboxamide]
6 | 50 nM | 60 nM | > 10000 nM | C[C@@H]1C[C@H](C(=O)Nc2ccc(C(F)(F)F)cc2Cl)n2c1c(N1CCN(C(=O)c3c(O)ccc4nccn34)CC1)c(=O)n1nc(C3=CCOCC3)nc21 [Example 9, (7R,9R)—N-(2-chloro-4-(trifluoromethyl)phenyl)-2-(3,6-dihydro-2H-pyran-4-yl)-6-(4-(6-hydroxyimidazo[1,2-a]pyridine-5-carbonyl)piperazin-1-yl)-7-methyl-5-oxo-5,7,8,9-tetrahydropyrrolo[1,2-c][1,2,4]triazolo[1,5-a]pyrimidine-9-carboxamide]
7 | 90 nM | 200 nM | > 10000 nM | Cc1nccc(C(=O)N2CCN(c3c4n(c5nc(C6=CCOCC6)nn5c3=O)[C@@H](C(=O)Nc3ccc(C(F)(F)F)cc3Cl)C[C@H]4C)CC2)c1O [Example 10, (7R,9R)—N-(2-chloro-4-(trifluoromethyl)phenyl)-2-(3,6-dihydro-2H-pyran-4-yl)-6-(4-(3-hydroxy-2-methylisonicotinoyl)piperazin-1-yl)-7-methyl-5-oxo-5,7,8,9-tetrahydropyrrolo[1,2-c][1,2,4]triazolo[1,5-a]pyrimidine-9-carboxamide]
8 | 50 nM | 40 nM | > 10000 nM | C[C@@H]1C[C@H](C(=O)Nc2ccc(C(F)(F)F)cc2Cl)n2c1c(N1CCN(C(=O)c3ncccc3O)CC1)c(=O)n1nc(C3=CCOCC3)nc21 [Example 11, (7R,9R)—N-(2-chloro-4-(trifluoromethyl)phenyl)-2-(3,6-dihydro-2H-pyran-4-yl)-6-(4-(3-hydroxypicolinoyl)piperazin-1-yl)-7-methyl-5-oxo-5,7,8,9-tetrahydropyrrolo[1,2-c][1,2,4]triazolo[1,5-a]pyrimidine-9-carboxamide]
